In brackets after ≈: the same amount, converted by molar mass.
assay: Inhibition of PHA-induced human lymphocyte proliferation; assay type: functional, cell-based

Going from `COc1c(O[C@@H]2O[C@@H](C)[C@H](O)[C@@H](OC(C)=O)[C@H]2O)cc2oc(-c3ccc(O)c(O)c3)c(O[C@@H]3O[C@@H](C)[C@H](O)[C@@H](O)[C@H]3O)c(=O)c2c1O` to `COc1c(O[C@@H]2O[C@@H](C)[C@H](O)[C@@H](O)[C@H]2OC(C)=O)cc2oc(-c3ccc(O)c(O)c3)c(O[C@@H]3O[C@@H](C)[C@H](O)[C@@H](O)[C@H]3O)c(=O)c2c1O` [KALAMBROSIDE B], the IC50 falls from 10 µg/mL (≈ 15 µM) to 1 µg/mL (≈ 1.5 µM) (10-fold).

Compared with `COc1c(O[C@@H]2O[C@@H](C)[C@H](O)[C@@H](OC(C)=O)[C@H]2O)cc2oc(-c3ccc(O)c(O)c3)c(O[C@@H]3O[C@@H](C)[C@H](OC(C)=O)[C@@H](O)[C@H]3O)c(=O)c2c1O`, `COc1c(O[C@@H]2O[C@@H](C)[C@H](O)[C@@H](O)[C@H]2OC(C)=O)cc2oc(-c3ccc(O)c(O)c3)c(O[C@@H]3O[C@@H](C)[C@H](OC(C)=O)[C@@H](O)[C@H]3O)c(=O)c2c1O` [KALAMBROSIDE A] is 2-fold higher in IC50: 0.25 µg/mL (≈ 0.353 µM) for the first, 0.5 µg/mL (≈ 0.706 µM) for the second.

Work on `COc1c(O[C@@H]2O[C@@H](C)[C@H](O)[C@@H](O)[C@H]2O)cc2oc(-c3ccc(O)c(O)c3)c(O[C@@H]3O[C@@H](C)[C@H](OC(C)=O)[C@@H](O)[C@H]3O)c(=O)c2c1O` [KALAMBROSIDE C] yielded an IC50 of over 10 µg/mL.
